Measurements from US20250059164A1, “IRAK DEGRADERS AND USES THEREOF” (Kymera Therapeutics, Inc., priority 2023, published 2025).

Tests used:
[1] = target: T1, IRAK4 (Homo sapiens, UniProt Q9NWZ3); assay: IRAK4 MSD degradation in OCI-LY10; format: cell-based; details: OCI-LY10 cells, 24 hrs, Meso Scale Discovery
T1 construct: endogenous in cells; host or cells: OCI-LY10
T1 sequence (Q9NWZ3 1-460): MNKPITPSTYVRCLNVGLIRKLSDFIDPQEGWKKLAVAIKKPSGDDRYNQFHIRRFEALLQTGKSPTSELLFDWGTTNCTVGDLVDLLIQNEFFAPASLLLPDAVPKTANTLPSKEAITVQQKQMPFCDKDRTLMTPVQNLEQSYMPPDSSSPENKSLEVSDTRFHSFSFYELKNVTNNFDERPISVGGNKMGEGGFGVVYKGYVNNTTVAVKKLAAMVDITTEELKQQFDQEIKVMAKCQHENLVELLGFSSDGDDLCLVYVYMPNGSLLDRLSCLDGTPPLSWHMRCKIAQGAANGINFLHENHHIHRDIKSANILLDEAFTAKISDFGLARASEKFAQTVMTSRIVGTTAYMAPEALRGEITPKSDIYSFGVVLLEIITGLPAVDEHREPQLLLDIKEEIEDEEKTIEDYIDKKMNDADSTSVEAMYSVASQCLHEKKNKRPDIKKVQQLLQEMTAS
Summary of the method: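 Remaining IRAK4 protein measured by Meso Scale Discovery electrochemiluminescence sandwich assay on lysates of OCI-LY10 cells. Cells were exposed for 4 to 24 hours (37° C., 5% CO2) to eight 1:3-diluted concentrations starting at 1 to 10 μM. DC50 derived by three-parameter logistic fitting.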

[2] = Rodent pharmacokinetics (rat PK); format: in vivo; details: po, dosed intravenously or orally by gavage, plasma, read-out: F % (bioavailability)
Summary of the method: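 F % is reported as a letter code: A for ≥5%, B for ≤5%. It was derived from rat plasma profiles after intravenous or oral gavage dosing, with jugular vein sampling from predose to 24 h (5 min point for IV only).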

Row | DC50 [1] | bioavailability [2] | Compound
1 | < 10 nM | ≤ 5% | CC(C)(O)c1cc2nn([C@H]3CC[C@H](CN4CCC5(CCN(c6cccc7c(N8CCC(=O)NC8=O)cncc67)CC5)C(F)(F)C4)CC3)cc2cc1NC(=O)c1cncc(C#N)c1 [I-400]
2 | > 200 nM | ≤ 5% | Cn1c(=O)n(C2CCC(=O)NC2=O)c2cccc(N3CCC4(CCN(C[C@H]5CC[C@H](c6nc7cc(C(C)(C)O)c(NC(=O)c8cncc(C#N)c8)cc7o6)CC5)CC4(F)F)CC3)c21 (some centres unmarked) [I-406]
3 | 10 to 100 nM | ≤ 5% | Cn1c(=O)n(C2CCC(=O)NC2=O)c2cccc(N3CCC4(CCN(C[C@H]5CC[C@H](c6nc7cc(C(C)(C)O)c(NC(=O)c8cccc(C(F)(F)F)n8)cc7s6)CC5)CC4(F)F)CC3)c21 (some centres unmarked) [I-407]
4 | > 200 nM | ≥ 5% | Cn1c(=O)n(C2CCC(=O)NC2=O)c2cccc(N3CCC4(CCN(C[C@H]5CC[C@H](c6nc7cc(C(C)(C)O)c(NC(=O)c8cccc(C(F)(F)F)n8)cc7o6)CC5)CC4(F)F)CC3)c21 (some centres unmarked) [I-408]
5 | > 200 nM | ≥ 5% | Cn1c(=O)n(C2CCC(=O)NC2=O)c2cccc(N3CC4(CCN(C[C@H]5CC[C@H](c6nc7cc(C(C)(C)O)c(NC(=O)c8cncc(C#N)c8)cc7o6)CC5)CC4(F)F)C3)c21 (some centres unmarked) [I-410]
6 | 100 to 200 nM | ≤ 5% | COc1ccc2c(c1N1CC3(CCN(C[C@H]4CC[C@H](c5nc6cc(C(C)(C)O)c(NC(=O)c7cncc(C#N)c7)cc6s5)CC4)CC3(F)F)C1)n(C)c(=O)n2C1CCC(=O)NC1=O (some centres unmarked) [I-412]
7 | > 200 nM | ≤ 5% | COc1ccc2c(c1N1CC3(CCN(C[C@H]4CC[C@H](c5nc6cc(C(C)(C)O)c(NC(=O)c7cccc(C(F)(F)F)n7)cc6s5)CC4)CC3(F)F)C1)n(C)c(=O)n2C1CCC(=O)NC1=O (some centres unmarked) [I-414]

Second part, the compound before the results:

Row | Compound | DC50 [1] | bioavailability [2]
8 | Cn1nc(N2CCC(=O)NC2=O)c2cccc(N3CCC4(CCN(C[C@H]5CC[C@H](n6cc7cc(NC(=O)c8cncc(C#N)c8)c(C(C)(C)O)cc7n6)CC5)CC4(F)F)CC3)c21 [I-404] | 10 to 100 nM | ≤ 5%
9 | Cn1c(=O)n(C2CCC(=O)NC2=O)c2cccc([C@@H]3CCN(C[C@H]4CC[C@H](c5nc6cc(C(C)(C)O)c(NC(=O)c7cncc(C#N)c7)cc6o5)CC4)C[C@H]3F)c21 (some centres unmarked) [I-405] | 10 to 100 nM | ≤ 5%
10 | Cn1c(=O)n(C2CCC(=O)NC2=O)c2cccc(N3CC4(CCN(C[C@H]5CC[C@H](c6nc7cc(C(C)(C)O)c(NC(=O)c8cccc(C(F)(F)F)n8)cc7s6)CC5)CC4(F)F)C3)c21 (some centres unmarked) [I-409] | 10 to 100 nM | ≥ 5%
11 | Cn1c(=O)n(C2CCC(=O)NC2=O)c2cccc(N3CC4(CCN(C[C@H]5CC[C@H](c6nc7cc(C(C)(C)O)c(NC(=O)c8cccc(C(F)(F)F)n8)cc7o6)CC5)CC4(F)F)C3)c21 (some centres unmarked) [I-411] | > 200 nM | ≥ 5%
12 | COc1ccc2c(c1N1CC3(CCN(C[C@H]4CC[C@H](c5nc6cc(C(C)(C)O)c(NC(=O)c7cncc(C#N)c7)cc6o5)CC4)CC3(F)F)C1)n(C)c(=O)n2C1CCC(=O)NC1=O (some centres unmarked) [I-413] | > 200 nM | ≤ 5%
13 | COc1ccc2c(c1N1CC3(CCN(C[C@H]4CC[C@H](c5nc6cc(C(C)(C)O)c(NC(=O)c7cccc(C(F)(F)F)n7)cc6o5)CC4)CC3(F)F)C1)n(C)c(=O)n2C1CCC(=O)NC1=O (some centres unmarked) [I-415] | < 10 nM | ≤ 5%
